Data from patent US20260109721A1, “IONIZABLE CATIONIC LIPIDS INCORPORATING SILICON: SYNTHESIS AND LNP FORMULATION” (priority 2023, published 2026).
Like-named read-outs stand apart in the source and are kept apart here.

Experiments:
HeLa cells [1] = test: Transfection efficiency with Luciferase (SecNLuc) mRNA, Nano-Glo assay (Method A); format: cell-based; conditions: Luc mRNA, 24 h, luminescence; for Transfection 10 ng mRNA: 10 ng mRNA/well; for Transfection 50 ng mRNA: 50 ng mRNA/well; for Transfection 100 ng mRNA: 100 ng mRNA/well
In short: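 LNPs formulated by Method A carried SecNLuc mRNA at 100, 50 or 10 ng/well onto HeLa cells at 80% confluence, in triplicate. After 24 h, secreted NanoLuc in the medium was measured by Nano-Glo luminescence about 3 min after reagent addition.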

HeLa cells [2] = test: Cell viability assessment with resazurin assay (Method A); format: cell-based
In short: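 HeLa cells after Luc mRNA LNP transfection were incubated 50 min at 37 °C with 0.025 mg/ml resazurin in DMEM/F12 with 10% FCS. Resorufin fluorescence was read at ex 540/em 610 nm, background-subtracted, and expressed as percent of OptiMEM-only controls.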

For CCCCCCCC/C=C\CCCCCCCCOC(=O)C(C)(C)CC(OCCCCCCCC/C=C\CCCCCCCC)O[Si](C)(C)OCCCCCCN(CCO)CCO (stereo not drawn) [Example 84, (Z)-octadec-9-en-1-yl 1-hydroxy-3-(2-hydroxyethyl)-11,11,15,15-tetramethyl-13-(((Z)-octadec-9-en-1-yl)oxy)-10,12-dioxa-3-aza-11-silahexadecan-16-oate], the “Transfection 10 ng mRNA” value (HeLa cells [1]) was 3.08E+03, the “Transfection 50 ng mRNA” value (HeLa cells [1]) was 5.69E+04 and the “Transfection 100 ng mRNA” value (HeLa cells [1]) was 2.00E+05. For the same compound, the “Cell Viability % (Average metabolic rate over all doses, Resazurin)” value (“Cell Viability %” below) (HeLa cells [2]; human) was 114%.
CCCCCCCC/C=C\CCCCCCCCOC(=O)C(C)(C)CC(OCCCCCCCC/C=C\CCCCCCCC)O[Si](C)(C)OCCCCCCN1CCOCC1 (stereo not drawn) [Example 85, (Z)-octadec-9-en-1-yl 4-((dimethyl((6-morpholinohexyl)oxy)silyl)oxy)-2,2-dimethyl-4-(((Z)-octadec-9-en-1-yl)oxy)butanoate] was tested, and the “Transfection 10 ng mRNA” value (HeLa cells [1]) was 4.67E+00, the “Transfection 50 ng mRNA” value (HeLa cells [1]) was 3.23E+01 and the “Transfection 100 ng mRNA” value (HeLa cells [1]) was 8.37E+01. The “Cell Viability %” value (HeLa cells [2]; human) was 110%.
In the case of CCCCCCCC/C=C\CCCCCCCCOC(=O)C(C)(C)CC(OCCCCCCCC/C=C\CCCCCCCC)O[Si](C)(C)OCCCCCCN(CCCCO)CCCCO (stereo not drawn) [Example 86, (Z)-octadec-9-en-1-yl 18-hydroxy-14-(4-hydroxybutyl)-2,2,6,6-tetramethyl-4-(((Z)-octadec-9-en-1-yl)oxy)-5,7-dioxa-14-aza-6-silaoctadecanoate], the “Transfection 10 ng mRNA” value (HeLa cells [1]) is reported as 3.47E+04, the “Transfection 50 ng mRNA” value (HeLa cells [1]) is reported as 4.82E+05 and the “Transfection 100 ng mRNA” value (HeLa cells [1]) is reported as 1.37E+06. The “Cell Viability %” value (HeLa cells [2]; human) was 96%.
In the case of CCCCCCCC/C=C\CCCCCCCCOC(=O)C(C)(C)CC(OCCCCCCCC/C=C\CCCCCCCC)O[Si](C)(C)OCCCCCCN1CCCCC1 (stereo not drawn) [Example 87, (Z)-octadec-9-en-1-yl 4-((dimethyl((6-(piperidin-1-yl)hexyl)oxy)silyl)oxy)-2,2-dimethyl-4-(((Z)-octadec-9-en-1-yl)oxy)butanoate], the “Transfection 10 ng mRNA” value (HeLa cells [1]) is reported as 5.68E+03, the “Transfection 50 ng mRNA” value (HeLa cells [1]) is reported as 5.01E+04 and the “Transfection 100 ng mRNA” value (HeLa cells [1]) is reported as 9.96E+04. The “Cell Viability %” value (HeLa cells [2]; human) was 84%.
With CCCCCCCC/C=C\CCCCCCCCOC(=O)C(C)(C)CC(OCCCCCCCC/C=C\CCCCCCCC)O[Si](C)(C)OCCCCCCN(CCCO)CCCO (stereo not drawn) [Example 88, (Z)-octadec-9-en-1-yl 1-hydroxy-4-(3-hydroxypropyl)-12,12,16,16-tetramethyl-14-(((Z)-octadec-9-en-1-yl)oxy)-11,13-dioxa-4-aza-12-silaheptadecan-17-oate] the “Transfection 10 ng mRNA” value (HeLa cells [1]) was 6.30E+03, the “Transfection 50 ng mRNA” value (HeLa cells [1]) was 9.95E+04 and the “Transfection 100 ng mRNA” value (HeLa cells [1]) was 5.10E+05. The “Cell Viability %” value (HeLa cells [2]; human) was 91%.
For CCCCCCCC/C=C\CCCCCCCCOC(=O)C(C)(C)CC(OCCCCCCCC/C=C\CCCCCCCC)O[Si](C)(C)OCCCCCCN1CCCCC1CO (stereo not drawn) [Example 89, (Z)-octadec-9-en-1-yl 4-((((6-(2-(hydroxymethyl)piperidin-1-yl)hexyl)oxy)dimethylsilyl)oxy)-2,2-dimethyl-4-(((Z)-octadec-9-en-1-yl)oxy)butanoate], the “Transfection 10 ng mRNA” value (HeLa cells [1]) was 1.10E+06, the “Transfection 50 ng mRNA” value (HeLa cells [1]) was 7.47E+06 and the “Transfection 100 ng mRNA” value (HeLa cells [1]) was 1.54E+07. The “Cell Viability %” value (HeLa cells [2]; human) was 96%.
For CCCCCCCC/C=C\CCCCCCCCOC(=O)C(C)(C)CC(OCCCCCCCC/C=C\CCCCCCCC)O[Si](C)(C)OCCCCCCN1CCCC1CO (stereo not drawn) [Example 90, (Z)-octadec-9-en-1-yl 4-((((6-(2-(hydroxymethyl)pyrrolidin-1-yl)hexyl)oxy)dimethylsilyl)oxy)-2,2-dimethyl-4-(((Z)-octadec-9-en-1-yl)oxy)butanoate], the “Transfection 10 ng mRNA” value (HeLa cells [1]) was 2.84E+04, the “Transfection 50 ng mRNA” value (HeLa cells [1]) was 1.06E+06 and the “Transfection 100 ng mRNA” value (HeLa cells [1]) was 4.86E+06. The “Cell Viability %” value (HeLa cells [2]; human) was 106%.
In the case of CCCCCCCC/C=C\CCCCCCCCOC(=O)C(C)(C)CC(OCCCCCCCC/C=C\CCCCCCCC)O[Si](C)(C)OCCCCCCN(C)CCCCO (stereo not drawn) [Example 91, (Z)-octadec-9-en-1-yl 18-hydroxy-2,2,6,6,14-pentamethyl-4-(((Z)-octadec-9-en-1-yl)oxy)-5,7-dioxa-14-aza-6-silaoctadecanoate], the “Transfection 10 ng mRNA” value (HeLa cells [1]) is reported as 7.02E+03, the “Transfection 50 ng mRNA” value (HeLa cells [1]) is reported as 1.13E+05 and the “Transfection 100 ng mRNA” value (HeLa cells [1]) is reported as 7.45E+05. For the same compound, the “Cell Viability %” value (HeLa cells [2]; human) was 105%.
CCCCCCCC/C=C\CCCCCCCCOC(=O)C(C)(C)CC(OCCCCCCCC/C=C\CCCCCCCC)O[Si](C)(C)OCCCCCCN(C)CC(O)CO (stereo not drawn) [Example 92, (Z)-octadec-9-en-1-yl 1,2-dihydroxy-4,12,12,16,16-pentamethyl-14-(((Z)-octadec-9-en-1-yl)oxy)-11,13-dioxa-4-aza-12-silaheptadecan-17-oate] was tested, and the “Transfection 10 ng mRNA” value (HeLa cells [1]) was 3.35E+03, the “Transfection 50 ng mRNA” value (HeLa cells [1]) was 3.94E+04 and the “Transfection 100 ng mRNA” value (HeLa cells [1]) was 1.65E+05. The “Cell Viability %” value (HeLa cells [2]; human) was 111%.
For CCCCCCCC/C=C\CCCCCCCCOC(=O)C(C)(C)CC(OCCCCCCCC/C=C\CCCCCCCC)O[Si](C)(C)OCCCCCCN(C)CCO (stereo not drawn) [Example 93, (Z)-octadec-9-en-1-yl 1-hydroxy-3,11,11,15,15-pentamethyl-13-(((Z)-octadec-9-en-1-yl)oxy)-10,12-dioxa-3-aza-11-silahexadecan-16-oate], the “Transfection 10 ng mRNA” value (HeLa cells [1]) was 2.73E+03, the “Transfection 50 ng mRNA” value (HeLa cells [1]) was 2.75E+04 and the “Transfection 100 ng mRNA” value (HeLa cells [1]) was 1.19E+05. For the same compound, the “Cell Viability %” value (HeLa cells [2]; human) was 106%.
With CCCCCCCC/C=C\CCCCCCCCOC(=O)C(C)(C)CCC(OCCCCCCCC/C=C\CCCCCCCC)O[Si](C)(C)OCCCCCCN(CCO)CCO (stereo not drawn) [Example 94, (Z)-octadec-9-en-1-yl 1-hydroxy-3-(2-hydroxyethyl)-11,11,16,16-tetramethyl-13-(((Z)-octadec-9-en-1-yl)oxy)-10,12-dioxa-3-aza-11-silaheptadecan-17-oate] the “Transfection 10 ng mRNA” value (HeLa cells [1]) was 7.50E+02, the “Transfection 50 ng mRNA” value (HeLa cells [1]) was 8.22E+03 and the “Transfection 100 ng mRNA” value (HeLa cells [1]) was 3.14E+04. For the same compound, the “Cell Viability %” value (HeLa cells [2]; human) was 101%.
With CCCCCCCC/C=C\CCCCCCCCOC(=O)C(C)(C)CCC(OCCCCCCCC/C=C\CCCCCCCC)O[Si](C)(C)OCCCCCCN1CCOCC1 (stereo not drawn) [Example 95, (Z)-octadec-9-en-1-yl 5-((dimethyl((6-morpholinohexyl)oxy)silyl)oxy)-2,2-dimethyl-5-(((Z)-octadec-9-en-1-yl)oxy)pentanoate] the “Transfection 10 ng mRNA” value (HeLa cells [1]) was 1.22E+02, the “Transfection 50 ng mRNA” value (HeLa cells [1]) was 5.37E+02 and the “Transfection 100 ng mRNA” value (HeLa cells [1]) was 9.82E+02. For the same compound, the “Cell Viability %” value (HeLa cells [2]; human) was 106%.
For CCCCCCCC/C=C\CCCCCCCCOC(=O)C(C)(C)CC(OCCCCCCCC/C=C\CCCCCCCC)O[Si](C)(C)OCCCCCCN(CCO)CCN(CCO)CCCCCCO[Si](C)(C)OC(CC(C)(C)C(=O)OCCCCCCCC/C=C\CCCCCCCC)OCCCCCCCC/C=C\CCCCCCCC (stereo not drawn) [Example 96, di((Z)-octadec-9-en-1-yl) 14,17-bis(2-hydroxyethyl)-2,2,6,6,25,25,29,29-octamethyl-4,27-bis(((Z)-octadec-9-en-1-yl)oxy)-5,7,24,26-tetraoxa-14,17-diaza-6,25-disilatriacontanedioate], the “Transfection 10 ng mRNA” value (HeLa cells [1]) was 3.94E+02, the “Transfection 50 ng mRNA” value (HeLa cells [1]) was 2.15E+03 and the “Transfection 100 ng mRNA” value (HeLa cells [1]) was 2.94E+03. For the same compound, the “Cell Viability %” value (HeLa cells [2]; human) was 104%.
In the case of C#CCN(C)CCCCCCO[Si](C)(C)OC(CC(C)(C)C(=O)OCCCCCCCC/C=C\CCCCCCCC)OCCCCCCCC/C=C\CCCCCCCC (stereo not drawn) [Example 97, (Z)-octadec-9-en-1-yl 4,12,12,16,16-pentamethyl-14-(((Z)-octadec-9-en-1-yl)oxy)-11,13-dioxa-4-aza-12-silaheptadec-1-yn-17-oate], the “Transfection 10 ng mRNA” value (HeLa cells [1]) is reported as 3.01E+02, the “Transfection 50 ng mRNA” value (HeLa cells [1]) is reported as 1.34E+03 and the “Transfection 100 ng mRNA” value (HeLa cells [1]) is reported as 1.28E+03. The “Cell Viability %” value (HeLa cells [2]; human) was 109%.
For CCCCCCCCCCCOC(=O)CCCCCN(CCO)CCCCCCCC(=O)OC(CCCCCCCC)CCCCCCCC [SM-102, reference compound], the “Transfection 10 ng mRNA” value (HeLa cells [1]) was 2.15E+06, the “Transfection 50 ng mRNA” value (HeLa cells [1]) was 7.53E+06 and the “Transfection 100 ng mRNA” value (HeLa cells [1]) was 7.61E+06. The “Cell Viability %” value (HeLa cells [2]) was 91%.
